Assays:
Format in all cases: cell-based
AR protein = target: T1, AR protein (Homo sapiens, UniProt P10275, T878A); assay: Degradation of AR protein in LNCAP cells (Western blot, 8 h); conditions: LNCaP FGC cells
T1 construct: host or cells: LNCaP FGC
T1 sequence (P10275 1-920 T878A): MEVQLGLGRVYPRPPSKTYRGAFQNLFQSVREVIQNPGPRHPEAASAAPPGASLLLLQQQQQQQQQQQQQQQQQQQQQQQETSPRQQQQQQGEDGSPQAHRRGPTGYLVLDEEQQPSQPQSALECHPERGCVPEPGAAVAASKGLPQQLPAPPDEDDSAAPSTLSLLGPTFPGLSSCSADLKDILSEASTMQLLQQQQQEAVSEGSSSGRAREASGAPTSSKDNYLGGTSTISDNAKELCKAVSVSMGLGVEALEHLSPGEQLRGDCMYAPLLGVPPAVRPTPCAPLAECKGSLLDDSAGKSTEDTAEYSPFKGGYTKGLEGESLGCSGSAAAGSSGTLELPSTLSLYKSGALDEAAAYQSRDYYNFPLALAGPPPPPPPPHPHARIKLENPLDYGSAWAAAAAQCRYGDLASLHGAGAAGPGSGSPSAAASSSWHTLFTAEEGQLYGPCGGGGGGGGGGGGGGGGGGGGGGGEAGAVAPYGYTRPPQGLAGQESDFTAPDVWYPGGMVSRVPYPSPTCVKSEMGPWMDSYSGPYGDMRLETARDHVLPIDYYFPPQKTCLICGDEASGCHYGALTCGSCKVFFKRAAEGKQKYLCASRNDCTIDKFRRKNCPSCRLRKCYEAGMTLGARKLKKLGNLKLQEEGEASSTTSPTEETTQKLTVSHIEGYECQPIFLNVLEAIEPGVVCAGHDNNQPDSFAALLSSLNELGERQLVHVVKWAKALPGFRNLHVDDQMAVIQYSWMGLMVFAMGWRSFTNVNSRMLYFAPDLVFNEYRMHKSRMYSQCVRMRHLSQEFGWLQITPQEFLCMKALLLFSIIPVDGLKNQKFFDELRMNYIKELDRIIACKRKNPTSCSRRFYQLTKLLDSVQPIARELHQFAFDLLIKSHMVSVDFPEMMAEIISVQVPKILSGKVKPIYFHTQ
Protocol: After 8 h, the culture medium was discarded, and the cells were washed with PBS. After the cells were washed with PBS, RIPA lysis buffer containing 1% Protease Inhibitor Cocktail was added, and the total protein extract was obtained after lysis and centrifugation, and the protein concentration in the extract was detected by BCA method. Protein electrophoresis was carried out by SDS-PAGE, after which the proteins were transferred to PVDF (Millipore Sigma Catalog No. PSRP010R5) membrane by 100V constant voltage electrotransfer for 60 min, and the PVDF membrane was placed in 1×TBST solution with 5% milk and blocked at room temperature for 1h. […] The primary antibody solution was discarded, and the PVDF membrane was washed three times with 1× TBST for 5 min each. […] The secondary antibody solution was discarded, and the PVDF membrane was washed three times with 1× TBST for 5 min each. Western membrane imaging was performed using a dual-color infrared laser imaging system (Licor catalog number Odyssey CLX). Bands were analyzed in grayscale using the software Image Studio. For each sample, GAPDH protein bands were detected as internal reference. The degradation rates of the AR protein for the compounds and positive control sample were calculated based on the grayscale of the protein bands.

ERα [1] = target: T2, ERα (Homo sapiens, UniProt P03372); assay: Degradation of ERα in MCF-7 cells (immunoblotting, 4 h)
T2 sequence (P03372 1-595): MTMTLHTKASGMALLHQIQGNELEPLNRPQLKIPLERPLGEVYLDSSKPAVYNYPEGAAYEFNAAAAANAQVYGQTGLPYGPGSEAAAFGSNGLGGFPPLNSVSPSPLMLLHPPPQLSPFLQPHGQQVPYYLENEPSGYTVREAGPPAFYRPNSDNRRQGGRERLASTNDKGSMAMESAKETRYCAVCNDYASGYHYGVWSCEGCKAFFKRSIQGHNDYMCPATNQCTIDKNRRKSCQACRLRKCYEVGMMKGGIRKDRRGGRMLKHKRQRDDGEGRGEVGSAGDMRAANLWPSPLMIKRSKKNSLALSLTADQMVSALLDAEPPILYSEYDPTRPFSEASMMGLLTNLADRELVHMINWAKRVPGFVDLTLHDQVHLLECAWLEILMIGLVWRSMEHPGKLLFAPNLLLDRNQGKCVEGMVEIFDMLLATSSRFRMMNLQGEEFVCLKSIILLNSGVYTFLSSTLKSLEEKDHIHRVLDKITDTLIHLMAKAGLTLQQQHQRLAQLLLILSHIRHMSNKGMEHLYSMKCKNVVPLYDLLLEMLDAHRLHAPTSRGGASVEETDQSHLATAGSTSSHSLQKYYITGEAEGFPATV
Procedure, shortened: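 MCF-7 cells treated 4 h at 37°C with compounds at 0.15-1000nM final. ERα in lysates measured by immunoblot, with band grayscale normalized to an internal reference protein. Degradation rate calculated against DMSO-treated control.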

ERα [2] = target: T2, ERα; assay: Degradation of ERα in T-47D cells (immunoblotting, 4 h); design: host or cells: T-47D
Procedure, shortened: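 T-47D cells were treated with compound (final 0.15-1000 nM, DMSO) for 4 h at 37°C, 5% CO2. Cells were lysed in RIPA buffer with protease inhibitor, and ERα protein in the cleared lysate was measured by immunoblotting.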

T-47D cells = assay: Inhibition of cell proliferation in T-47D cells (CCK-8, 6 days); conditions: 6 days of treatment
Procedure, shortened: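 T-47D cells at 3,000 cells/well in RPMI 1640 with 10% FBS were exposed to a concentration series of PROTAC compounds for 6 days at 37 °C, 5% CO2. Viability was read by CCK-8, and IC50 values were derived for proliferation inhibition.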

MCF-7 cells [3] = assay: Inhibition of cell proliferation of MCF-7 cells (CCK-8, 9 days); conditions: treated for 9 days, CCK-8 kit (Table 6)
Procedure, shortened: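 MCF-7 cells seeded at 800 cells/well in DMEM with 10% FBS, exposed to a range of compound concentrations for 9 days at 37°C, 5% CO2. Viability read by CCK-8; IC50 derived for proliferation inhibition.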

MCF-7 cells [4] = assay: Inhibition of cell proliferation of MCF-7 cells (CCK-8, 6 days); conditions: 6 days of treatment, Table 4
From the text: Test Example 3 Inhibitory effect of the PROTAC compounds provided in the present disclosure on cell proliferation of MCF-7 cells
The complete medium required for MCF-7 cells (source ATCC) was DMEM (gibco, Product number :11995-065) basal medium containing 10% fetal bovine serum. MCF-7 cells were inoculated in 96-well plates at a density of 800 cells/well, and different concentrations of the PROTAC compounds 1-55 provided in the examples of the present disclosure and a positive control sample ARV-471 (source: Innochem) were prepared to treat the cells, and the cells were treated at 37°C in a cell culture incubator with 5% CO2 for 6 days. Cell viability was detected using a CCK-8 kit (Beyotime, Product number: C0040) according to the manufacturer's instructions. The IC50 values of each PROTAC compound after 6 days of treatment were calculated using GraphPadPrism software based on the inhibition rate, and the results are shown in Table 4. Table 4 IC50 values for inhibition of the proliferation of MCF-7 cells by the PROTAC compounds of the present disclosure and positive control sample

| Structure (SMILES) | Degradation rates of the AR protein in LNCAP cells, 10 nM (%) (AR protein) | Degradation rates of the AR protein in LNCAP cells, 100 nM (%) (AR protein) | Degradation rate (%) of ERα in MCF-7 cells (ERα [1]; 1nM compound) | Degradation rate (%) of ERα in MCF-7 cells (ERα [1]; 10nM compound) | Degradation rate (%) of ERα in T-47D cells (ERα [2]; 1nM compound) | Degradation rate (%) of ERα in T-47D cells (ERα [2]; 10nM compound) | IC50 (T-47D cells; Table 3) | IC50 (MCF-7 cells [3]) | IC50 (T-47D cells; Table 2) | IC50 (MCF-7 cells [4]) |
| --- | --- | --- | --- | --- | --- | --- | --- | --- | --- | --- |
| C[C@H]1CC2(CCN(c3ccc(N4CCC(CN5CCC6(CC5)COc5cc7c(cc56)CN(C5CCC(=O)NC5=O)C7=O)CC4)cc3)CC2)CN1c1ccc(C#N)c(Cl)c1 (stereo partly shown) [2-376] | 20% | 70% |  |  |  |  |  |  |  |  |
| C[C@H]1CC2(CCN(c3ccc(C(=O)N4CCC(CN5CCC6(CC5)COc5cc7c(cc56)CN(C5CCC(=O)NC5=O)C7=O)CC4)cc3)CC2)CN1c1ccc(C#N)c(Cl)c1 (stereo partly shown) [2-384] | 48% | 63% |  |  |  |  |  |  |  |  |
| O=C1CCC(N2Cc3ccc4c(c3C2=O)OCC42CCN(C3CCC4(CC3)CN(c3ccc([C@@H]5c6ccc(O)cc6CC[C@@H]5c5ccccc5)cc3)C4)CC2)C(=O)N1 (stereo partly shown) [L25] |  |  | -20% | 6% | -1% | 17% | 7.97 nM | 757 nM |  |  |
| O=C1CCC(N2Cc3ccc4c(c3C2=O)OCC42CCN(C3CC4(CCN(c5ccc([C@@H]6c7ccc(O)cc7CC[C@@H]6c6ccccc6)cc5)CC4)C3)CC2)C(=O)N1 (stereo partly shown) [L26] |  |  | 10% | 18% | -11% | 30% | 6.52 nM | 828 nM |  |  |
| O=C1CCC(N2Cc3c(ccc4c3OCC43CCN(C(=O)C4CCC5(CC4)CCN(c4ccc([C@@H]6c7ccc(O)cc7CC[C@@H]6c6ccccc6)cc4)CC5)CC3)C2=O)C(=O)N1 (stereo partly shown) [L27] |  |  | 24% | 52% | 12% | 66% | 8.51 nM | > 100000 nM |  |  |
| O=C1CCC(N2Cc3cc4c(cc3C2=O)CCC2(CCN(CC3CN(c5ccc(C6c7ccc(O)cc7CCC6c6ccccc6)cc5)C3)CC2)O4)C(=O)N1 (stereo not shown) [M1] |  |  |  |  |  |  |  |  | 117 nM | 44100 nM |
| O=C1CCC(N2Cc3cc4c(cc3C2=O)OC2(CC4)CCN(C3CC4(C3)CN(c3ccc(C5c6ccc(O)cc6CCC5c5ccccc5)cc3)C4)CC2)C(=O)N1 (stereo not shown) [M5] |  |  |  |  |  |  |  |  | 313 nM | 5660 nM |
| O=C1CCC(N2Cc3cc4c(cc3C2=O)OC2(CC4)CN(C3CC4(CCN(c5ccc(C6c7ccc(O)cc7CCC6c6ccccc6)cc5)CC4)C3)C2)C(=O)N1 (stereo not shown) [M8] |  |  |  |  |  |  |  |  | 22 nM | 51700 nM |
| O=C1CCC(N2Cc3cc4c(cc3C2=O)CCC2(CN(CC3CCC5(CC3)CN(c3ccc([C@@H]6c7ccc(O)cc7CC[C@@H]6c6ccccc6)cc3)C5)C2)O4)C(=O)N1 (stereo partly shown) [M15] |  |  | -23% | -24% | -15% | 13% | 6 nM | 48 nM |  |  |
| O=C1CCC(N2Cc3cc4c(cc3C2=O)OC2(CC4)CCN(C3CC4(CCN(c5ccc([C@@H]6c7ccc(O)cc7CC[C@@H]6c6ccccc6)cc5)CC4)C3)CC2)C(=O)N1 (stereo partly shown) [M17] |  |  | -9% | 0% | 10% | 20% | 8 nM | 30 nM |  |  |
| CN(C1CCN(c2ccc([C@@H]3c4ccc(O)cc4CC[C@@H]3c3ccccc3)cc2)CC1)[C@H]1CC[C@H](C(=O)N2CCC3(CC2)COc2c3ccc3c2CN(C2CCC(=O)NC2=O)C3=O)CC1 (stereo partly shown) [N2] |  |  | -7% | -8% | 10% | 42% | 3.63 nM | 247 nM |  |  |
| CN(CC1CCN(c2ccc([C@@H]3c4ccc(O)cc4CC[C@@H]3c3ccccc3)cc2)CC1)[C@H]1CC[C@H](C(=O)N2CCC3(CC2)COc2c3ccc3c2CN(C2CCC(=O)NC2=O)C3=O)CC1 (stereo partly shown) [N3] |  |  | -4% | 1% | 30% | 70% | 4.92 nM | 195 nM |  |  |
| O=C1CCC(N2Cc3c(ccc4c3OCC43CCN(CCN4CCC5(CCN(c6ccc([C@@H]7c8ccc(O)cc8CC[C@@H]7c7ccccc7)cc6)CC5)C4)CC3)C2=O)C(=O)N1 (stereo partly shown) [N4] |  |  | 54% | 73% | 64% | 85% | 3 nM | 132 nM |  |  |
| O=C1CCC(N2Cc3c(ccc4c3OCC43CCN(C(=O)C(=O)N4CCC5(CCN(c6ccc([C@@H]7c8ccc(O)cc8CC[C@@H]7c7ccccc7)cc6)CC5)C4)CC3)C2=O)C(=O)N1 (stereo partly shown) [N5] |  |  | 58% | 69% | 63% | 82% | 1.79 nM | 34.1 nM |  |  |
| CCN(CC1CCN(c2ccc([C@@H]3c4ccc(O)cc4CC[C@@H]3c3ccccc3)cc2)CC1)[C@H]1CC[C@@H](C(=O)N2CCC3(CC2)COc2c3ccc3c2CN(C2CCC(=O)NC2=O)C3=O)CC1 (stereo partly shown) [N8] |  |  | -2% | 31% | 21% | 55% | 6.6 nM | 25400 nM |  |  |

Source: patent publication EP4656642A1, “ESTROGEN RECEPTOR PROTEOLYSIS TARGETING CHIMERA COMPOUND AND USE THEREOF” (GAN & LEE PHARM CO., LTD, priority 2023, dated 2024)
